Our source for the GI50 and TGI values is PubChem BioAssay (NCI).

Several values for one entry are separate records, joined by “and”; a condition that tells them apart may be missing. Equal values may be shown once.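 48-hour exposure; five concentrations; linearly interpolated endpoints. Abbreviation: GI50, concentration required for 50% inhibition of growth. TGI denotes the concentration required for complete inhibition of growth.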 Where only a bound is given, the exact number is not on record here.

Among the test systems are 786-0 renal; ACHN renal; NCI-H23 lung; PC-3 prostate; SK-OV-3 ovarian; SN12C renal; SR leukemia; UACC-62 melanoma; K-562 leukemia; RXF 393 renal.
Holding throughout (assay): NCI tumour cell line growth inhibition, 48 h

Consider `OCCN1CN(CCO)CN(c2nc(N3CN(CCO)CN(CCO)C3)nc(N3CN(CCO)CN(CCO)C3)n2)C1`, for which the GI50 with 786-0 renal was 0.631 ng/mL; with NCI-H23 lung it was 1.42 ng/mL; with SK-OV-3 ovarian, 1.39 ng/mL; in the test with SN12C renal it was 6.3 ng/mL; in the test on UACC-62 melanoma it was 0.991 ng/mL. In addition, the TGI in the test with 786-0 renal came out at 0.968 ng/mL; with ACHN renal it was 1.64 ng/mL; with NCI-H23 lung it was 4.39 ng/mL; in the test on PC-3 prostate, 3.51 ng/mL; in the test with SK-OV-3 ovarian it was 4.64 ng/mL; in the test with SN12C renal, 7.22 ng/mL. Besides, the figures for the TGI with SR leukemia and with UACC-62 melanoma were 0.63 ng/mL and 3.31 ng/mL, respectively.
In the case of `CC1=Nc2ccccc2C1C(Cc1ccccc1N)c1c(C)[nH]c2ccccc12` (stereo not drawn), the TGI with 786-0 renal worked out at 28.6 µM; with ACHN renal, 30.1 µM; in the test with K-562 leukemia it was 43.2 µM; in the test on NCI-H23 lung, 33.6 µM; with RXF 393 renal it was 35.1 µM; with SK-OV-3 ovarian it was 53.3 µM. In addition, the figures for the TGI with SN12C renal, in the test on SR leukemia and with UACC-62 melanoma were 33.6 µM, 50.3 µM and 26.3 µM, respectively.
On to `COC(=O)C1=C(c2ccc3c(c2)OCO3)O[C@H](c2cc(OC)c(OC)c(OC)c2)[C@H]1COC(C)=O`, for which the TGI was 42.3 µM with 786-0 renal; greater than 100 µM with ACHN renal; greater than 100 µM in the test on K-562 leukemia; 17.7 µM with NCI-H23 lung; 5.09 µM with RXF 393 renal; 5.94 µM in the test on SK-OV-3 ovarian. Besides, the TGI was determined as 37.9 µM in the test on SN12C renal, 70.3 µM in the test on SR leukemia and 47.6 µM with UACC-62 melanoma.
On to `COc1ccc(N(C)c2ncnc3occ(C)c23)cc1`, for which the GI50 in the test with 786-0 renal is less than 0.01 µM; in the test on ACHN renal, 0.0193 µM; in the test on K-562 leukemia it was less than 0.01 µM; with NCI-H23 lung, less than 0.01 µM; in the test with PC-3 prostate it was less than 0.01 µM; in the test with SK-OV-3 ovarian, less than 0.01 µM. The GI50 in the test with SN12C renal, in the test with SR leukemia and in the test on UACC-62 melanoma was less than 0.01 µM each time. Besides, the TGI with 786-0 renal is greater than 100 µM; in the test with ACHN renal it was greater than 100 µM; in the test with NCI-H23 lung, greater than 100 µM; in the test on PC-3 prostate, greater than 51.8 µM; in the test on SK-OV-3 ovarian, greater than 100 µM; in the test with SN12C renal it was greater than 100 µM. Also, the values for the TGI with SR leukemia and with UACC-62 melanoma were 0.236 µM and greater than 100 µM, respectively.
For the compound `Cc1nc2ccccc2c(=O)n1NC(=O)c1ccc(CS)cc1`, the TGI with 786-0 renal was found to be 23.6 µM; with ACHN renal, 27 µM; in the test on K-562 leukemia, 68.1 µM; in the test on NCI-H23 lung, 52.1 µM; in the test on PC-3 prostate it was 19.2 µM; with SK-OV-3 ovarian it was 78 µM. For the same compound, the TGI in the test with SN12C renal came to 70.8 µM; in the test with SR leukemia, 43.1 µM.
Consider `O=c1nc2occc2cn1C1CC(O)C(CO)O1` (stereo not drawn), for which the TGI in the test on 786-0 renal, in the test on ACHN renal, in the test with K-562 leukemia, with NCI-H23 lung, in the test on RXF 393 renal and in the test with SK-OV-3 ovarian was greater than 100 µM in each case. Also, the TGI in the test with SN12C renal, with SR leukemia and in the test on UACC-62 melanoma was greater than 100 µM throughout.
`COC(=O)C12C3C4C1C1C2C3C41C(=O)OC(C)(C)C` (stereo not drawn): the TGI in the test with 786-0 renal, in the test with ACHN renal, in the test on K-562 leukemia, with NCI-H23 lung, with RXF 393 renal and with SK-OV-3 ovarian was greater than 100 µM throughout. The TGI with SN12C renal is greater than 100 µM; in the test on SR leukemia, 44.1 µM; in the test on UACC-62 melanoma, greater than 100 µM.
For `CC(=O)O.CC(=O)O.CC(=O)O.CC(=O)O.CC(=O)O.CC(=O)O.O.[Ti].[Ti]`, the GI50 in the test on 786-0 renal, in the test with ACHN renal, with K-562 leukemia, in the test with RXF 393 renal, with SN12C renal and in the test with SR leukemia was greater than 100 µM in each case. The GI50 in the test on UACC-62 melanoma is greater than 100 µM. In addition, the TGI in the test on 786-0 renal, in the test on ACHN renal, with K-562 leukemia, with RXF 393 renal, in the test on SN12C renal and in the test with SR leukemia was greater than 100 µM throughout. In the test with UACC-62 melanoma, this compound came in with a TGI greater than 100 µM.
For `CC1OC(n2cc(F)c(=O)[nH]c2=O)C=CC1O` (stereo not drawn), the TGI in the test on 786-0 renal, with ACHN renal, with K-562 leukemia, in the test on NCI-H23 lung, in the test on RXF 393 renal and in the test with SK-OV-3 ovarian was greater than 100 µM in each case. Besides, the TGI in the test with SN12C renal, in the test on SR leukemia and in the test on UACC-62 melanoma was greater than 100 µM throughout.
In the case of `CCN(CC)CCOc1ccc(/C=C(\C#N)c2ccc(OCCN(CC)CC)cc2)cc1`, the TGI is 25.5 µM in the test with 786-0 renal; greater than 58.8 µM in the test with ACHN renal; 23.5 µM in the test on K-562 leukemia; 42.6 µM in the test on NCI-H23 lung; 27.9 µM in the test on RXF 393 renal; greater than 64.2 µM in the test on SK-OV-3 ovarian. Also, the TGI in the test on SN12C renal was greater than 100 µM; in the test on SR leukemia it was 30 µM; in the test with UACC-62 melanoma, 31.9 µM.
Turning to `Cc1cc(Br)cc(C)c1NC(=O)C(=O)C(C(=O)c1ccc2ccccc2c1)C1OC(=O)c2ccccc21` (stereo not drawn), the TGI in the test with 786-0 renal was 19.3 µM; with ACHN renal, 34.7 µM; in the test with K-562 leukemia, greater than 72.9 µM; in the test with NCI-H23 lung it was 13.6 µM; in the test with RXF 393 renal, 17.8 µM; in the test with SK-OV-3 ovarian it was greater than 100 µM. Also, the values for the TGI in the test on SN12C renal, with SR leukemia and in the test on UACC-62 melanoma were 50.5 µM, 33.9 µM and 29.6 µM, respectively.
`COC(=O)c1cc2c(cc1O)[C@@H](NC(C)=O)CCc1cc(OC)c(OC)c(OC)c1-2`: the GI50 with 786-0 renal is 0.0416 µM; in the test with ACHN renal, 0.0459 µM; in the test with K-562 leukemia, 0.0246 µM; with NCI-H23 lung it was 0.0217 µM; in the test on PC-3 prostate it was 0.015 µM; in the test with SK-OV-3 ovarian it was 0.0831 µM. Also, the GI50 with SN12C renal is 0.0408 µM; with SR leukemia, less than 0.01 µM; with UACC-62 melanoma it was 0.0159 µM. The TGI in the test with 786-0 renal was greater than 100 µM; in the test with ACHN renal, greater than 100 µM; with K-562 leukemia it was greater than 100 µM; in the test with NCI-H23 lung, 0.0848 µM and 0.0712 µM; in the test on PC-3 prostate, greater than 100 µM; in the test with SK-OV-3 ovarian, greater than 100 µM. The TGI in the test with SN12C renal, with SR leukemia and in the test with UACC-62 melanoma was greater than 100 µM throughout.
